This is an account of results in patent US10118930B2, “Piperidinylpyrazolopyrimidinones and their use” (BAYER PHARMA AKTIENGESELLSCHAFT, priority 2015, dated 2018).

Structures can show the parent of a compound that is named as a salt.

By IC50 is commonly meant the midpoint of a concentration-inhibition curve.

This experiment has as its system clot lysis (fibrinolysis) in diluted human citrated plasma, tPA-induced. Kind of experiment: Plasma-based clot lysis assay (5%). Type of experiment: biochemical. To be noted: human citrated platelet-poor plasma 5%, fibrinogen 3 μM, CaCl2 10 mM, tPA 0.2 nM, 37° C., OD at 405 nm. The method, boiled down: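 Clot formation and breakdown triggered by CaCl2 (10 mM final) plus tPA (0.2 nM final) at 37° C, in 5% diluted human plasma supplemented with 3 μM fibrinogen (HEPES/NaCl/Brij buffer, pH 7). IC50 obtained from time courses relative to a blank control.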
For the compound `CC1(c2nc(-c3cnn4c(C5CCNCC5)cc(=O)[nH]c34)no2)CC1` (racemic) [Example 381, Rac-3-[5-(1-Methylcyclopropyl)-1,2,4-oxadiazol-3-yl]-7-(piperidin-4-yl)pyrazolo[1,5-a]pyrimidin-5(4H)-one hydrochloride], the midpoint of inhibition, the IC50, lay at 29 nM. Regarding `O=c1cc(C2CCNCC2)n2ncc(-c3cccc(OC(F)(F)F)c3)c2[nH]1` [Example 70, 7-(Piperidin-4-yl)-3-[3-(trifluoromethoxy)phenyl]pyrazolo[1,5-a]pyrimidin-5(4H)-one hydrochloride], the 50% inhibitory concentration (IC50) turned out to be 14 nM. As for `O=c1cc(C2CCNCC2)n2ncc(-c3nc(-c4cc(Cl)cc(Cl)c4)no3)c2[nH]1` [Example 151, 3-[3-(3,5-Dichlorophenyl)-1,2,4-oxadiazol-5-yl]-7-(piperidin-4-yl)pyrazolo[1,5-a]pyrimidin-5 (4H)-one hydrochloride], the IC50 came out at 44 nM. Then `COc1ccccc1Cc1nnc(-c2cnn3c(C4CCNCC4)cc(=O)[nH]c23)o1` [Example 280, 3-[5-(2-methoxybenzyl)-1,3,4-oxadiazol-2-yl]-7-(piperidin-4-yl)pyrazolo[1,5-a]pyrimidin-5(4H)-one hydrochloride], with 29 nM; and `Cc1nn2c(C3CCNCC3)cc(=O)[nH]c2c1C(=O)O` [Example 323, 2-methyl-5-oxo-7-(piperidin-4-yl)-4,5-dihydropyrazolo[1,5-a]pyrimidine-3-carboxylic acid hydrochloride], with 460 nM; and `Cc1cc(C(F)(F)F)ccc1-c1noc(-c2cnn3c(C4CCNCC4)cc(=O)[nH]c23)n1` [Example 139, 3-{3-[2-Methyl-4-(trifluoromethyl)phenyl]-1,2,4-oxadiazol-5-yl}-7-(piperidin-4-yl)pyrazolo[1,5-a]pyrimidin-5(4H)-one hydrochloride], with 41 nM. To `O=C(OCC(F)(F)F)c1cnn2c(C3CCNCC3)cc(=O)[nH]c12` [Example 354, 2,2,2-trifluoroethyl 5-oxo-7-(piperidin-4-yl)-4,5-dihydropyrazolo[1,5-a]pyrimidine-3-carboxylate hydrochloride] belongs 27 nM; to `CCCc1noc(-c2cnn3c(C4CCNCC4)cc(=O)[nH]c23)n1` [Example 34, 7-(Piperidin-4-yl)-3-(3-propyl-1,2,4-oxadiazol-5-yl)pyrazolo[1,5-a]pyrimidin-5(4H)-one hydrochloride], 12 nM; to `COC(=O)c1c(C(F)(F)F)nn2c(C3CCNCC3)cc(=O)[nH]c12` [Example 454, Methyl 5-oxo-7-(piperidin-4-yl)-2-(trifluoromethyl)-4,5-dihydropyrazolo[1,5-a]pyrimidine-3-carboxylate hydrochloride], 34 nM. As for `O=c1cc(C2CCNCC2)n2ncc(-c3noc(C4CCC(F)(F)CC4)n3)c2[nH]1` [Example 393, 3-(5-(4,4-difluorocyclohexyl)-1,2,4-oxadiazol-3-yl)-7-(piperidin-4-yl)pyrazolo[1,5-a]pyrimidin-5(4H)-one hydrochloride], the IC50 turned out to be 30 nM.

For the compound `CC(C)Cc1nc(-c2cnn3c(C4CCNCC4)cc(=O)[nH]c23)no1` [Example 378, 3-(5-Isobutyl-1,2,4-oxadiazol-3-yl)-7-(piperidin-4-yl)pyrazolo[1,5-a]pyrimidin-5(4H)-one hydrochloride], it took 32 nM to reach half-maximal inhibition (IC50). Turning to `Cc1ccc(S(C)(=O)=NC(=O)c2cnn3c(C4CCNCC4)cc(=O)[nH]c23)cc1` (stereo not drawn) [Example 36, N-[Methyl(4-methylphenyl)oxido-lambda^6-sulfanylidene]-5-oxo-7-(piperidin-4-yl)-4,5-dihydropyrazolo[1,5-a]pyrimidine-3-carboxamide hydrochloride], the IC50 amounted to 28 nM.
